Assay results taken from patent publication US20230219979A1, “PYRAZOLO[1,5-a]PYRIDINE COMPOUND, PREPARATION METHOD THEREFOR AND USE THEREOF” (SHENZHEN ZHONGGE BIOLOGICAL TECHNOLOGY CO., LTD., priority 2019, published 2023).

Legend:
Wild-type RET kinase = Wild-type RET kinase (Homo sapiens, UniProt P07949); assay: HTRF method for testing the inhibitory activity of compounds against RET; format: biochemical; details: HTRF; read-out: Wild-type RET kinase
RET V804M = RET V804M (Homo sapiens, UniProt P07949, V804M); assay: Inhibitory activity against RET kinase mutant RET V804M; format: biochemical; details: read-out: median inhibitory activity (IC50) against RET V804M
Sequence of RET V804M (P07949 29-1114 V804M): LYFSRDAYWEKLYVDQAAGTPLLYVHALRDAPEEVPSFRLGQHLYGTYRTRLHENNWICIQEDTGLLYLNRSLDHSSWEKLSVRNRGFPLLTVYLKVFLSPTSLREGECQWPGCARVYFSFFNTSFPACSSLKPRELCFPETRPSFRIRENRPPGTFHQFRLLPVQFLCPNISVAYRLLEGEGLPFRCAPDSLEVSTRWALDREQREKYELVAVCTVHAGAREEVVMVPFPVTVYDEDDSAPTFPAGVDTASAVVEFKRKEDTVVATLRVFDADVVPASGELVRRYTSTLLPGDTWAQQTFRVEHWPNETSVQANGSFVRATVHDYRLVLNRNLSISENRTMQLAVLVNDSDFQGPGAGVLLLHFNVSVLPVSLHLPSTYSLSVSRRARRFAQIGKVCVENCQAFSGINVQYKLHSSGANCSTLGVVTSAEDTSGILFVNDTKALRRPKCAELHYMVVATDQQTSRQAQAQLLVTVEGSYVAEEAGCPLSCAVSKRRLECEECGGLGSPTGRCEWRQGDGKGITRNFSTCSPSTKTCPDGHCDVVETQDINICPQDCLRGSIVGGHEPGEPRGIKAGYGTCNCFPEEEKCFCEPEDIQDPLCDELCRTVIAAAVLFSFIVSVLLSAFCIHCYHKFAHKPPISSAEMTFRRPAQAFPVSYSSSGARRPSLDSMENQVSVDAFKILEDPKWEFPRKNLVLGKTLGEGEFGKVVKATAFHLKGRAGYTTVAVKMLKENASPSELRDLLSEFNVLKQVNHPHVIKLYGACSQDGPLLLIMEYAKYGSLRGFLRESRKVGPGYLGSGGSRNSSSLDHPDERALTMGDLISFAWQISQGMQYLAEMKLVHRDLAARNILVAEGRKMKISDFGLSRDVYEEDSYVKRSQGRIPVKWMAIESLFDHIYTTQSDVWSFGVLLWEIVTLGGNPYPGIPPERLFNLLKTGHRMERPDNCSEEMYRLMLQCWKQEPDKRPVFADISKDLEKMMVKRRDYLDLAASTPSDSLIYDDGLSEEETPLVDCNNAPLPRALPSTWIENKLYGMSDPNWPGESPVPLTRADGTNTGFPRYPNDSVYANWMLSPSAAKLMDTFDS

RET G810S kinase = RET G810S kinase (Homo sapiens, UniProt P07949, G810S); assay: HTRF method for testing the inhibitory activity against RET G810S; format: biochemical; details: for IC50: HTRF; for inhibitory activity against G810S (in words): mutant strain of RET kinase
Sequence of RET G810S kinase (P07949 29-1114 G810S): as the sequence (P07949 29-1114 V804M) above, with M776V, G782S counted along it

Ba/F3-KIF5B-RET cell = molecular target: T1, Ba/F3-KIF5B-RET cell (Homo sapiens, UniProt P07949); assay: CellTiter-Glo luminescence assay, inhibitory activity against Ba/F3-KIF5B-RET cell; format: cell-based; details: 72 h, read-out: Ba/F3-KIF5B-RET cell activity
T1 construct: fused on or other part: P33176 (Kinesin-1 heavy chain)
T1 sequence (P07949 whole entry, stated change not applied, the tested form may be a part): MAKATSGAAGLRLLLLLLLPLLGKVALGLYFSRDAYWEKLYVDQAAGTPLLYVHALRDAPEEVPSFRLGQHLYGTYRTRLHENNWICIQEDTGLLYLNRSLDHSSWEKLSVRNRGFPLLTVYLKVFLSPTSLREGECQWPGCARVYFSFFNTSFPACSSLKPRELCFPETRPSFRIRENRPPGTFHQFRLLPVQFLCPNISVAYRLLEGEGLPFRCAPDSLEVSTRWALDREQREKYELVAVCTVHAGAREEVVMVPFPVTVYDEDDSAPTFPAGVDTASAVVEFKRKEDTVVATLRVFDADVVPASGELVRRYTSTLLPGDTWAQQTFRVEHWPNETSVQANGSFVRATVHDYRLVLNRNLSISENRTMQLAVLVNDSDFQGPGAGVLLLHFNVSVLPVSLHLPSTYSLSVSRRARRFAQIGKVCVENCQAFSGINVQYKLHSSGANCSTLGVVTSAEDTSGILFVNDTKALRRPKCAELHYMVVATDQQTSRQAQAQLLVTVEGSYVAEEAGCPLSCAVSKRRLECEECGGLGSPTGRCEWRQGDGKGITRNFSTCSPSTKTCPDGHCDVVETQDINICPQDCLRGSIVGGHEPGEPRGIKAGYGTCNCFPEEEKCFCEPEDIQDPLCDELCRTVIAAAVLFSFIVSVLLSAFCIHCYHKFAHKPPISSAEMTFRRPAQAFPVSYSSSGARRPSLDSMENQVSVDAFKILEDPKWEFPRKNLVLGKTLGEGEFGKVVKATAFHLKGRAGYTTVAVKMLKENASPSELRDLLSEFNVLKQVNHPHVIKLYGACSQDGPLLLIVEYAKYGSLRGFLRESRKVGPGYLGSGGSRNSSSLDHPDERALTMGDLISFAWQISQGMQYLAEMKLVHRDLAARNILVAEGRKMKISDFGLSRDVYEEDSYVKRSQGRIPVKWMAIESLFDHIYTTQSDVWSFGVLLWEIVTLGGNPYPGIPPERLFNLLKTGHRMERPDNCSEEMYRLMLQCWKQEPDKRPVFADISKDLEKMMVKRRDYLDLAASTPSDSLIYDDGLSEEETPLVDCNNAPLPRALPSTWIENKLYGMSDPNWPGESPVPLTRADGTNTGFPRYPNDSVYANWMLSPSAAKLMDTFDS
Method in brief: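 Ba/F3 cells stably expressing human KIF5B-RET, 800 per well, treated 72 h at 37° C with 10 compound concentrations from 5000 to 0.254 nM (0.5% DMSO). Viability by CellTiter-Glo luminescence; IC50 from curve fitting.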

RET M918T = RET M918T (Homo sapiens, UniProt P07949, M918T); assay: Inhibitory activity against RET kinase mutant RET M918T; format: biochemical; details: read-out: median inhibitory activity (IC50) against RET M918T
Sequence of RET M918T (P07949 29-1114 M918T): as the sequence (P07949 29-1114 V804M) above, with M776V, M890T counted along it

RET G810R kinase = RET G810R kinase (Homo sapiens, UniProt P07949, G810R); assay: HTRF method for testing the inhibitory activity against RET G810R; format: biochemical; details: for IC50: HTRF; for inhibitory activity against G810R (in words): mutant strain of RET kinase
Sequence of RET G810R kinase (P07949 29-1114 G810R): as the sequence (P07949 29-1114 V804M) above, with M776V, G782R counted along it

CCDC6-RET = molecular target: T2, CCDC6-RET (Homo sapiens, UniProt P07949); assay: Inhibitory activity against RET gene fusion CCDC6-RET; format: biochemical; details: read-out: median inhibitory activity (IC50) against CCDC6-RET
T2 construct: CCDC6 (fusion partner, N-terminal part); the other entry of the earlier key: CCDC6 (Q16204, Coiled-coil domain-containing protein 6)
T2 sequence (P07949 with tags, fused parts or gaps): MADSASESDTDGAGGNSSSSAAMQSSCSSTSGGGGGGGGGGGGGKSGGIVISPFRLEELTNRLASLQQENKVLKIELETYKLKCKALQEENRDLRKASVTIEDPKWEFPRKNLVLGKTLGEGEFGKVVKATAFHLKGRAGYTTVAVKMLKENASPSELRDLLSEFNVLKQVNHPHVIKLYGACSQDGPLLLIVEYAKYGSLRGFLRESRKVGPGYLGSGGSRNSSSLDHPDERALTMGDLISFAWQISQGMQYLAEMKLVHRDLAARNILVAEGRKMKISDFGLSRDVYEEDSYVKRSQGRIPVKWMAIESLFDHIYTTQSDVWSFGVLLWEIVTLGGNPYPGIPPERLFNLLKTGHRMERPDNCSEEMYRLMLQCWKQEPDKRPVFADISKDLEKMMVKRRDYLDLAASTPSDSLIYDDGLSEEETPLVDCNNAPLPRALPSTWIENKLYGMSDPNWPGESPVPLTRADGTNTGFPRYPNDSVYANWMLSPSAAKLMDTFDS

VEGFR2 kinase = VEGFR2 kinase (Homo sapiens, UniProt P35968); assay: HTRF method for testing the inhibitory activity of compounds against VEGFR2; format: biochemical
Sequence of VEGFR2 kinase (P35968 20-1356): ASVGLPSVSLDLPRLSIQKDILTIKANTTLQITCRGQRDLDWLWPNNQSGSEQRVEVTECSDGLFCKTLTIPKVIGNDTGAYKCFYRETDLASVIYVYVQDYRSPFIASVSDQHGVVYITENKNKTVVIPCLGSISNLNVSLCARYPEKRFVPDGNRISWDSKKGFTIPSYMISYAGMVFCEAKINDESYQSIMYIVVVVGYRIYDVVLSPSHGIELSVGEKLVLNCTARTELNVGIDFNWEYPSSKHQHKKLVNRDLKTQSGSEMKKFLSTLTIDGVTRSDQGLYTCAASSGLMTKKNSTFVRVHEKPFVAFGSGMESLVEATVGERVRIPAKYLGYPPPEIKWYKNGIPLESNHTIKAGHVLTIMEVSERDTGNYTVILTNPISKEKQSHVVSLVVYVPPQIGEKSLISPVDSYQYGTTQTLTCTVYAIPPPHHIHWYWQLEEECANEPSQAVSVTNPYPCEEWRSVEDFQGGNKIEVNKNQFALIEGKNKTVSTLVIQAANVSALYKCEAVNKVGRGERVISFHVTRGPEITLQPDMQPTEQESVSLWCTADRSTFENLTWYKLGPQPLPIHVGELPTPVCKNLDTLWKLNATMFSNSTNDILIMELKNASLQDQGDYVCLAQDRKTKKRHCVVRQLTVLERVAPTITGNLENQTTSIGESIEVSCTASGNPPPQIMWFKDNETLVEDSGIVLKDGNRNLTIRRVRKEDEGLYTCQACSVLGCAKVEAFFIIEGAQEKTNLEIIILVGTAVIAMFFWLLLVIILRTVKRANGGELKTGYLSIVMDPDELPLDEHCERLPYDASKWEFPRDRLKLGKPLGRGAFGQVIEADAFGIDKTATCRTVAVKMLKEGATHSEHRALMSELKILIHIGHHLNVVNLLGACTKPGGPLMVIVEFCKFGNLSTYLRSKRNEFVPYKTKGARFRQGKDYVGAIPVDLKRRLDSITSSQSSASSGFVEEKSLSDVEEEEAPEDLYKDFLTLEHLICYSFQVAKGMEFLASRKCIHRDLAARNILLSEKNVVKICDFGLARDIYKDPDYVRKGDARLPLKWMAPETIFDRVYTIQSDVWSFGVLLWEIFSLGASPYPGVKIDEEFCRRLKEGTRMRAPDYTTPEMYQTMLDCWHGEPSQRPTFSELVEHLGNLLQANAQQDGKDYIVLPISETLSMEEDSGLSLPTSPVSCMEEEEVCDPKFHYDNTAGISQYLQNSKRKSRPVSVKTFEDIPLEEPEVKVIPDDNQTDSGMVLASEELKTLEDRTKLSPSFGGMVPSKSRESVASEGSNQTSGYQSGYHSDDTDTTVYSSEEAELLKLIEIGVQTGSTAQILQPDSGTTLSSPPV

Sequence of Wild-type RET kinase (P07949 29-1114): as the sequence (P07949 29-1114 V804M) above, with M776V counted along it

Structure (SMILES)	IC50 (Wild-type RET kinase) [nM]	IC50 (RET V804M) [nM]	IC50 (RET G810S kinase) [nM]	inhibitory activity against G810S (in words) (RET G810S kinase)	GI50 (Ba/F3-KIF5B-RET cell) [nM]	IC50 (RET M918T) [nM]	IC50 (RET G810R kinase) [nM]	inhibitory activity against G810R (in words) (RET G810R kinase)	IC50 (CCDC6-RET) [nM]	IC50 (VEGFR2 kinase) [nM]
CCNc1cc(-c2cnc(N3CC4CC(C3)N4Cc3ccc(OC)nc3)cn2)c2c(C#N)cnn2c1 [Compound 29, 6-(ethylamino)-4-(5-(-6-((6-methoxypyridin-3-yl)methyl)-3,6-diazabicyclo[3.1.1]heptane-3-yl)pyrazin-2-yl)pyrazolo[1,5-a]pyridine-3-carbonitrile]	0.181	< 5	1.93	good inhibitory activity	4.43	< 5	23.8	good inhibitory activity	< 5	56
COc1ccc(CN2C3CC2CN(c2ccc(-c4cc(NCC(F)F)cn5ncc(C#N)c45)cn2)C3)cn1 [Compound 50]	0.13	–	1.35	good inhibitory activity	5.75	–	5.65	good inhibitory activity	–	59.3
CCNc1cc(-c2ccc(N3CC4CC(C3)N4Cc3ccc(-n4cc(F)cn4)nc3)nc2)c2c(C#N)cnn2c1 [Compound 52, 6-(ethylamino)-4-(6-(6-((6-(4-fluoro-1H-pyrazol-1-yl)pyridin-3-yl)methyl)-3,6-diazabicyclo[3.1.1]heptan-3-yl)pyridin-3-yl)pyrazolo[1,5-a]pyridine-3-carbonitrile]	2.02	< 5	–	–	142	< 5	–	–	< 5	39
COc1ccc(CN2C3CC2CN(c2ccc(-c4cc(NCC(F)(F)F)cn5ncc(C#N)c45)cn2)C3)cn1 [Compound 56, 4-(6-(6-((6-methoxypyridin-3-yl)methyl)-3,6-diazabicyclo[3.1.1]heptan-3-yl)pyridin-3-yl)-6-((2,2,2-trifluoroethyl)amino)pyrazolo[1,5-a]pyridine-3-carbonitrile]	0.2	–	4.73	good inhibitory activity	8.53	–	19.3	good inhibitory activity	–	103
CCCNc1cc(-c2ccc(N3CC4CC(C3)N4Cc3ccc(OC)nc3)nc2)c2c(C#N)cnn2c1 [Compound 57, 4-(6-(6-((6-methoxypyridin-3-yl)methyl)-3,6-diazabicyclo[3.1.1]heptan-3-yl)pyridin-3-yl)-6-(propylamino)pyrazolo[1,5-a]pyridine-3-carbonitrile]	0.32	–	2.33	good inhibitory activity	1.24	–	10.6	good inhibitory activity	–	31.3
CCNc1cc(-c2ccc(N3CC4CC(C3)N4Cc3ccc(OC)nc3)nc2)c2c(C#N)cnn2c1 [Compound 62, 6-(ethylamino)-4-(6-(6-((6-methoxypyridin-3-yl)methyl)-3,6-diazabicyclo[3.1.1]heptan-3-yl)pyridin-3-yl)pyrazolo[1,5-a]pyridine-3-carbonitrile]	0.21	–	0.8	good inhibitory activity	1.82	–	6.22	good inhibitory activity	–	20
COc1ccc(CN2C3CC2CN(c2ccc(-c4cc(NCC(C)(C)O)cn5ncc(C#N)c45)cn2)C3)cn1 [Compound 63, 6-((2-hydroxy-2-methylpropyl)amino)-4-(6-(6-((6-methoxypyridin-3-yl)methyl)-3,6-diazabicyclo[3.1.1]heptan-3-yl)pyridin-3-yl)pyrazolo[1,5-a]pyridine-3-carbonitrile]	0.47	–	15	good inhibitory activity	3.39	–	76.9	good inhibitory activity	–	65.2
COc1ccc(CN2C3CC2CN(c2cnc(-c4cc(N5CCOCC5)cn5ncc(C#N)c45)cn2)C3)cn1 [Compound 66, 4-(5-(6-((6-methoxypyridin-3-yl)methyl)-3,6-diazabicyclo[3.1.1]heptyl-3-yl)pyrazin-2-yl)-6-morpholinopyrazolo[1,5-a]pyridine-3-carbonitrile]	0.82	–	26.7	good inhibitory activity	6.21	–	173	good inhibitory activity	–	318
COc1ccc(CN2C3CC2CN(c2ccc(-c4cc(NCC(C)C)cn5ncc(C#N)c45)cn2)C3)cn1 [Compound 67, 6-(isobutylamino)-4-(6-(6-((6-methoxypyridin-3-yl)methyl)-3,6-diazabicyclo[3.1.1]hept-3-yl)pyridin-3-yl)pyrazolo[1,5-a]pyridine-3-carbonitrile]	0.15	–	11	good inhibitory activity	2.19	–	90.9	good inhibitory activity	–	45.4
CCCCNc1cc(-c2ccc(N3CC4CC(C3)N4Cc3ccc(OC)nc3)nc2)c2c(C#N)cnn2c1 [Compound 68, 6-(butylamino)-4-(6-(6-((6-methoxypyridin-3-yl)methyl)-3,6-diazabicyclo[3.1.1]hept-3-yl)pyridin-3-yl)pyrazolo[1,5-a]pyridine-3-carbonitrile]	0.37	–	6.18	good inhibitory activity	4.19	–	49.1	good inhibitory activity	–	59.8
COc1ccc(CN2C3CC2CN(c2ccc(-c4cc(NC(C)C)cn5ncc(C#N)c45)cn2)C3)cn1 [Compound 69, 6-(isopropylamino)-4-(6-(6-((6-methoxypyridin-3-yl)methyl)-3,6-diazabicyclo[3.1.1]heptyl-3-yl)pyridin-3-yl)pyrazolo[1,5-a]pyridine-3-carbonitrile]	0.47	–	27	good inhibitory activity	4.14	–	42.4	good inhibitory activity	–	42.2
COc1ccc(CN2C3CC2CN(c2ccc(-c4cc(N5CCOCC5)cn5ncc(C#N)c45)cn2)C3)cn1 [Compound 70, 4-(6-(6-((6-methoxypyridin-3-yl)methyl)-3,6-diazabicyclo[3.1.1]heptyl-3-yl)pyridin-3-yl)-6-morpholinopyrazolo[1,5-a]pyridine-3-carbonitrile]	0.24	–	10.4	good inhibitory activity	1.97	–	31.4	good inhibitory activity	–	57.5
